Test results reported in patent US20110318738A1, “IDENTIFICATION AND REGULATION OF A NOVEL DNA DEMETHYLASE SYSTEM” (University of Utah Research Foundation, priority 2008, published 2011).

Columns and labels:
[1] = system: apc^mcr zebrafish embryos; test: Whole mount in situ hybridization in apc mutant embryos; conditions: for irbp (% of embryos): apc^sib 96%; for gadd45α expression (% of embryos) / aid expression (% of embryos): apc^wt + DMSO 94%; for gadd45α expression (% of embryos): apc^mcr + DMSO 9%; for aid expression (% of embryos): apc^mcr + DMSO 17%; for mbd4 expression (% of embryos): apc^wt + DMSO 95%, apc^mcr + DMSO 3%
[2] = system: HT29 and DLD1; test: Quantitative RT-PCR for AID, MBD4 and GADD45α in RA responsive colon carcinoma cell lines; format: cell-based; conditions: human colon cancer cell lines, ATRA 5 μM each day for two days; FIG. 11C
[3] = system: apc^mcr zebrafish embryos; test: Quantitative RT-PCR in apc mutant embryos after drug treatment; format: in vivo; conditions: for expression of aid, gadd45α and mbd4: all-trans retinoic acid 1 μM or NS-398 10 μM, FIG. 11A
Procedure: Quantitative RT-PCR primers for amplification of zebrafish rdh1l (Nadauld et al., 2005), human DHRS9 (Jette et al., 2004) 28S rRNA (Eisinger et al., 2006), and h18S rRNA (Delaunay et al., 2000) were described previously, and are (hereby incorporated by reference in its entirety into this application). A template-free negative control was included in each experiment.
(§1) RNA from embryos or human adenoma tissues was isolated using Trizol (Invitrogen). cDNA library was prepared using Superscript III kit (Invitrogen). RT-PCR was performed on a Roche light cycler.

[4] = system: apc mutants (72 hpf); test: MeDIP-qPCR for various genes in apc mutants; format: in vivo, zebrafish; conditions: apc mutant embryos treated with RA; FIG. 11D
Procedure: (§2) Expression of genes are first normalized to 28S, and then to the control embryo mRNA/28S ratio, valued as 1. […] In panels A-C, expression of genes are normalized first to 28S (A-B) or 18S (C) and then to the control sample values as 1.
This procedure was described in Weber et al., 2007. Briefly, Dynabeads (conjugated with sheep anti-mouse secondary antibody, Invitrogen) were incubated with 10 μg of 5MeC antibody (Eurogentec) for 2 hrs, washed, and then incubated with 4 μg of sonicated DNA (300 bp-1000 bp fragments) overnight Immunoprecipitated DNA was amplified using for whole genome amplification kit (Sigma Aldrich). Following amplification, 2 μg of amplified DNA was labeled with Cy5, and 2 μg of input DNA was labeled with Cy3 (Bio labs). Samples were competitively hybridized to 244K oligonucleotide promoter arrays (Agilent Inc).

[5] = system: zebrafish embryos; test: Whole mount in situ hybridization for neuronal markers in morpholino-injected embryos; format: in vivo; conditions: morpholino injected at single-cell stage, 24 hpf; for Sox-2: embryos showing positive staining for the marker: Control Mo 97%; for Neurogenin-1: embryos showing positive staining for the marker: Control Mo 100%
Procedure: Wild-type zebrafish (Tuebingen strain) were maintained in a 14 hr:10 hr light:dark cycle in a Z-Mod at 28.5° C. Embryos were injected at single-cell stage and then grown in a 28.5° C. incubator. Morpholinos were obtained from Gene-tools LLC Ltd. For these experiments, morpholino sequences were designed against the following:
Whole mount in situ hybridization was performed as described earlier in Rai et al., 2006 with digoxigenin (Roche) labeled probes against neurogenin-1 and sox-2.
To address whether AID/Apobec enzymes, Gadd45, or zebrafish Mbd4 have a role in the control of DNA methylation during normal zebrafish development, a subset of the enzyme family members were knocked down (by morpholino injection) and their impact on development was examined. Either AID, Gadd45α, or Mbd4 knockdown caused the loss of neurons at 24 hpf, shown by the absence of pro-neuronal markers such as neurogenin-1 or sox-2. […] As neurons form in mice lacking Mbd4 (or AID), zebrafish may rely more on these proteins for neurogenesis than do mice, or alternatively, neurogenesis in zebrafish may be more sensitive to misregulation of DNA methylation levels. […] The percentage listed depicts embryos showing positive staining for the marker indicated.

[6] = system: DLD1, SW480, and HT29 cells; test: Quantitative PCR measuring DHRS9 (RDHL) expression in colon cancer cell lines; format: cell-based, human; conditions: pargyline 3 mM, FIG. 14B
[7] = system: wild type embryos; test: Quantitative RT-PCR in RA deficiency models; format: in vivo, zebrafish; conditions: DEAB treated wild type embryos; FIG. 11B
Procedure: as §2, §1

[8] = apc^mcr embryos, Table 6, apc^mcr 0%
[9] = apc^mcr embryos, Table 6, apc^sib 100%, apc^mcr 0%

CC1=C(/C=C/C(C)=C/C=C/C(C)=C/C=O)C(C)(C)CCC1 [RAL]
intestinal differentiation marked by fabp2 expression ([1]; apc^mcr embryos treated with exogenous RAL): partially restored | fabp2 (% of embryos) ([1]; apc^mcr embryos, Table 5, apc^wt + Control Mo 99%, mutant + Control Mo 3%): 59%

Groucho2 mo: morpholino 5′-GCCCTGTGGATACATCTTGAAATGT-3′ (SEQ ID NO. 17) (all phosphorodiamidate morpholino (PMO))
irbp (% of embryos) [1, 8]: 5% | fabp2 (% of embryos) [1, 9]: 95% | rdh1l (% of embryos) [1, 9]: 83% | trypsin (% of embryos) [1, 9]: 86%

CC1=C(/C=C/C(C)=C/C=C/C(C)=C/C(=O)O)C(C)(C)CCC1 [ATRA, all-trans retinoic acid]
expression of the demethylase genes [2]: suppressed expression | Cebpβ expression ([3]; APC mutants, RA treatment, FIG. 12A): down regulated | dnmt1 expression ([3]; apc mutants, RA treatment): did not restore | expression of aid, gadd45α and mbd4 ([3]; apc mutants): greatly reduced | expression of pou5f1 ([3]; apc^mcr mutant embryos, ATRA 1 μM, FIG. 12A): reduced the expression | gadd45α expression (% of embryos) ([1]; apc^mcr embryos, Table 4): 91% | aid expression (% of embryos) ([1]; apc^mcr embryos, Table 4): 85% | mbd4 expression (% of embryos) ([1]; apc^mcr embryos, Table 4): 65% | dnmt1 expression (% of embryos) ([1]; apc^mcr embryos, Table 4, apc^wt + DMSO 97%, apc^mcr + DMSO 11%): 89% | expression of aldh1a2 ([1]; apc^mcr mutant, rdh1l morphant or nls mutant zebrafish treated with RA): decreased the expression | DNA methylation on the panel of genes implicated in intestinal differentiation and proliferation [4]: reversed the loss of DNA methylation

CS(=O)(=O)Nc1ccc([N+](=O)[O-])cc1OC1CCCCC1 [Cox-2 inh, NS-398]
expression of aid, gadd45α and mbd4 ([3]; apc mutants): little effect | gadd45α expression (% of embryos) ([1]; apc^mcr embryos, Table 4): 8% | aid expression (% of embryos) ([1]; apc^mcr embryos, Table 4): 20% | mbd4 expression (% of embryos) ([1]; apc^mcr embryos, Table 4): 9%%

Lsd1 mo: morpholino 5′-GGTCTGACTTCTTATTGGACAACAT-3′ (SEQ ID NO. 18) (all phosphorodiamidate morpholino (PMO))
irbp (% of embryos) [1, 8]: 8% | fabp2 (% of embryos) [1, 9]: 83%

Pitx2 Mo: morpholino 5′-TTTATCAAACTTACTCGGACTCTGG-3′ (SEQ ID NO. 15) (all phosphorodiamidate morpholino (PMO))
cyclinD1 (% of embryos) ([1]; apc^mcr embryos, Table 5, apc^wt + Control Mo 96%, mutant + Control Mo 17%): 90% | Pcna (% of embryos) ([1]; apc^mcr embryos, Table 5, apc^wt + Control Mo 97%, mutant + Control Mo 10%): 85%

Pou5f1 Mo: morpholino 5′-CGCTCTCTCCGTCATCTTTCCGCTA-3′ (SEQ ID NO. 14) (all phosphorodiamidate morpholino (PMO))
gadd45α expression (% of embryos) ([1]; apc^mcr embryos, Table 4): 83% | aid expression (% of embryos) ([1]; apc^mcr embryos, Table 4): 81% | mbd4 expression (% of embryos) ([1]; apc^mcr embryos, Table 4): 67%

AID Mo: morpholino against AID, 5′-GTTTTGTTTTCGCTTACCTGTCCAG-3′ (SEQ ID No. 1) (all phosphorodiamidate morpholino (PMO))
Sox-2: embryos showing positive staining for the marker [5]: 13% (n = 38) | Neurogenin-1: embryos showing positive staining for the marker [5]: 12% (n = 50)

C#CCN(C)Cc1ccccc1 [pargyline]
DHRS9 expression [6]: upregulated | expression of rdh1l ([3]; apc^mcr zebrafish embryos, pargyline 3 mM, FIG. 15A): rescued expression | expression of fabp2 ([1]; apc^mcr zebrafish embryos, pargyline 3 mM): rescued expression

CCN(CC)c1ccc(C=O)cc1 [DEAB, 4-(diethylamino) benzaldehyde]
expression of the demethylase genes [7]: increased expression

Mbd4 Mo: morpholino against zMbd4, 5′-AGAGAGAAACACACCTGCTCGCTGC-3′ (SEQ ID No. 8) (all phosphorodiamidate morpholino (PMO))
Sox-2: embryos showing positive staining for the marker [5]: 15% (n = 53) | Neurogenin-1: embryos showing positive staining for the marker [5]: 14% (n = 43)

Gadd45α Mo: morpholino against Gadd45α, 5′-ATATAAAAACATACCTTTCCGTTGC-3′ (SEQ ID No. 4) (all phosphorodiamidate morpholino (PMO))
Sox-2: embryos showing positive staining for the marker [5]: 33% (n = 48) | Neurogenin-1: embryos showing positive staining for the marker [5]: 11% (n = 52)

Corest mo: morpholino 5′-CCTTCTCTAACATTGCGGGCATCTT-3′ (SEQ ID NO. 19) (all phosphorodiamidate morpholino (PMO))
irbp (% of embryos) [1, 8]: 11% | fabp2 (% of embryos) [1, 9]: 79%
